# Measured values taken from patent US20240269337A1, “METHOD AND SYSTEM FOR COATING FILTER MEDIA” (MOLECULAR PLASMA GROUP SA, priority 2021, published 2024).
# Assays:
# [1] = test system: MS2 virus; experiment: Virucidal testing with MS2 droplets on coated filter media 2.2 (Example 3); type: cell-based; settings: 2 hours incubation
# Protocol: Filter media 2.2 were coated according to the process parameters of Table 9 using the same PlasmaLine® equipment. For each coating process, 2 samples were coated with the outer waved layer exposed to the plasma source, and 2 samples were coated with the outer backing layer surface exposed.
# Two precursors were used: an aqueous solution comprising 40% by weight of citric acid, and a solution of 15% by weight of chlorocresol in ethanol.
# The anti-viral properties were tested by application of a fixed number of water droplets containing the MS2 virus on the surface of the samples. The droplets were applied to the surface that was exposed to the plasma source during the atmospheric pressure plasma coating process. After an incubation of 2 hours, the samples were immerged in a recuperation solution to extract the virus from the samples. The recuperation solution was placed in a petri dish wherein the E. coli bacteria grew, and the number of viral zones (zones comprising death bacteria) are counted. A lower number of viral zones indicates a larger neutralisation of the virus by the plasma coating.
# The Virucide result (log value) gives the log value of the number of living viruses found in the recuperation solution.
# [2] = test system: Staphylococcus aureus (gram-positive); experiment: Quantitative antibacterial activity test of treated materials (OECD / ISO 22197/20743), Gram +; type: cell-based, S. aureus ATCC6538P
# [3] = test system: Escherichia coli (gram-negative); experiment: Quantitative antibacterial activity test of treated materials (OECD / ISO 22197/20743), Gram −; type: cell-based
# [4] = test system: Phi-6 bacteriophage; experiment: Phi-6 virucidal test (modified ISO 10705-1:1995); type: cell-based; settings: 20 wt% citric acid precursor, Outer wave sample, 2-hour contact
# [5] = pH test (change in pH value before and after coating, penetration depth); type: physicochemical; settings: Outer wave sample
# Protocol: The penetration depth was measured by measuring the change in pH value before and after coating on samples of the outer wave layer 51. […] Presence of citric acid was also detected in the intermediate layer 52.
# [6] = test system: MS2; experiment: MS2 test after accelerated ageing (ASTM F1980-16), Example 4; type: cell-based
# Description: Same filter media 2.2 as in example 3 was used. The filter media was placed with the outer backing layer on a support platform and the outer wave layer exposed to the coating precursor-comprising plasma discharge (or the plasma source) during the atmospheric pressure plasma coating process.
# Two different precursors were used: an aqueous solution comprising 50% by weight of citric acid (CAS 77-92-9), and an aqueous solution comprising 25% by weight n-alkyl(C12-16)-n,n-dimethyl-n-benzylammonium chloride (BTC50E; CAS 68424-85-1) (1:1 w/w dilution in water).
# Filter media samples were coated with each coating by passing 3 or 6 times through the plasma discharge area. The virucidal performance was tested by the MS2 test as explained above. An accelerated ageing test was performed according to ASTM F1980-16. […] An ageing test of 3 days at 55° C. and 75% RH represents 1 month in real life conditions. The results of the virucidal performance after ageing gives an idea of the durability of the coating over time.
# [7] = exposed side Backing layer, 5 passes
# [8] = exposed side Backing layer, 10 passes
# [9] = exposed side waved layer, 5 passes
# [10] = exposed side waved layer, 10 passes
# [11] = exposed side waved layer, 20 passes
# [12] = exposed side Backing layer, 20 passes
# [13] = 3 passes, 0 days oven (0 months real life)
# [14] = 3 passes, 9 days oven (3 months real life)
# [15] = 3 passes, 19 days oven (6 months real life)
# [16] = 3 passes, 27 days oven (9 months real life)
# [17] = 3 passes, 36 days oven (12 months real life)
# [18] = 6 passes, 0 days oven (0 months real life)
# [19] = 6 passes, 6 days oven 55° C. 75% RH (2 months real life)
# [20] = 6 passes, 9 days oven (3 months real life)
# [21] = 6 passes, 19 days oven (6 months real life)
# [22] = 6 passes, 27 days oven (9 months real life)
# [23] = 6 passes, 36 days oven (12 months real life)
# [24] = 3 passes, 3 days oven 55° C. 75% RH (1 month real life)
# [25] = 3 passes, 6 days oven 55° C. 75% RH (2 months real life)
# [26] = 6 passes, 3 days oven 55° C. 75% RH (1 month real life)
compound,measurement,setting,value
"Cc1cc(O)ccc1Cl [Chlorocresol, reference compound]",Virus neutralized (%),[1]; [7],68.4%
same,Viruside results (log red),[1]; [7],0.5 log red
same,Virus neutralized (%),[1]; [8],98.0%
same,Viruside results (log red),[1]; [8],1.7 log red
same,Virus neutralized (%),[1]; [9],36.9%
same,Viruside results (log red),[1]; [9],0.2 log red
same,Virus neutralized (%),[1]; [10],74.9%
same,Viruside results (log red),[1]; [10],0.6 log red
same,Virus neutralized (%),[1]; [11],84.2%
same,Viruside results (log red),[1]; [11],0.8 log red
"C=C(C)C(=O)OCCN(C)C [DIMAEMA, 2-(Dimethylamino) ethyl methacrylate]",% Gram + bacteria reduced,[2]; PPNW substrate 25 g/m^2,>99.994%
same,Gram + log reduction,[2]; PPNW substrate 25 g/m^2,>4.2 log
same,% Gram + bacteria reduced,[2]; Tyvek substrate,>99.95%
same,Gram + log reduction,[2]; Tyvek substrate,>3.3 log
same,% Gram − bacteria reduced,[3]; PPNW substrate 25 g/m^2,>99.9996%
same,Gram − log reduction,[3]; PPNW substrate 25 g/m^2,>5.4 log
same,% Gram − bacteria reduced,[3]; Tyvek substrate,20.6%
same,Gram − log reduction,[3]; Tyvek substrate,0.1 log
"CCCCCCCCCCCCCCCCCC[N+](C)(C)CCC[Si](OC)(OC)OC.[Cl-] [SiQAM, Dimethyloctadecyl[3-(trimethoxysilyl)propyl] ammonium chloride]",% Gram + bacteria reduced,[2]; PPNW substrate 25 g/m^2,>99.994%
same,Gram + log reduction,[2]; PPNW substrate 25 g/m^2,>4.2 log
same,% Gram + bacteria reduced,[2]; Tyvek substrate,>99.95%
same,Gram + log reduction,[2]; Tyvek substrate,>3.3 log
same,% Gram − bacteria reduced,[3]; PPNW substrate 25 g/m^2,>99.9996%
same,Gram − log reduction,[3]; PPNW substrate 25 g/m^2,>5.4 log
same,% Gram − bacteria reduced,[3]; Tyvek substrate,>98.7%
same,Gram − log reduction,[3]; Tyvek substrate,>1.9 log
Benzalkonium chloride [reference compound],% Gram + bacteria reduced,[2]; PPNW substrate 25 g/m^2,>99.994%
same,Gram + log reduction,[2]; PPNW substrate 25 g/m^2,>4.2 log
same,% Gram + bacteria reduced,[2]; Tyvek substrate,>99.5%
same,Gram + log reduction,[2]; Tyvek substrate,>3.3 log
same,% Gram − bacteria reduced,[3]; PPNW substrate 25 g/m^2,99.9996%
same,Gram − log reduction,[3]; PPNW substrate 25 g/m^2,5.4 log
same,% Gram − bacteria reduced,[3]; Tyvek substrate,98.7%
same,Gram − log reduction,[3]; Tyvek substrate,1.9 log
Citric Acid,Avg. Phi-6 (log red),[4]; 6 passes,>2.2 log red
same,Phi-6 neutralized (%),[4]; 6 passes,>99.37%
same,Avg. Phi-6 (log red),[4]; 10 passes,>2.2 log red
same,Phi-6 neutralized (%),[4]; 10 passes,>99.37%
same,Avg. Phi-6 (log red),[4]; 20 passes,>2.2 log red
same,Phi-6 neutralized (%),[4]; 20 passes,>99.37%
same,pH test,[5]; 6 passes,1.66
same,pH test,[5]; 10 passes,1.72
same,pH test,[5]; 20 passes,1.78
same,Virus neutralized (%),[1]; [7],93.7%
same,Viruside results (log red),[1]; [7],1.2 log red
same,Virus neutralized (%),[1]; [8],96.0%
same,Viruside results (log red),[1]; [8],1.4 log red
same,Virus neutralized (%),[1]; [12],99.8%
same,Viruside results (log red),[1]; [12],2.7 log red
same,Virus neutralized (%),[1]; [9],80.0%
same,Viruside results (log red),[1]; [9],0.7 log red
same,Virus neutralized (%),[1]; [10],93.7%
same,Viruside results (log red),[1]; [10],1.2 log red
same,Virus neutralized (%),[1]; [11],98.7%
same,Viruside results (log red),[1]; [11],1.9 log red
same,% Gram + bacteria reduced,[2]; PPNW substrate 25 g/m^2,>99.995%
same,Gram + log reduction,[2]; PPNW substrate 25 g/m^2,>4.3 log
same,% Gram + bacteria reduced,[2]; Tyvek substrate,>99.98%
same,Gram + log reduction,[2]; Tyvek substrate,>3.8 log
same,Virus neutralized (%),[6]; [13],99.86%
same,Viruside results (log red),[6]; [13],2.86 log red
same,Virus neutralized (%),[6]; [14],97.76%
same,Virus neutralized (%),[6]; [15],97.38%
same,Virus neutralized (%),[6]; [16],99.00%
same,Virus neutralized (%),[6]; [17],97.91%
same,Virus neutralized (%),[6]; [18],99.78%
same,Viruside results (log red),[6]; [18],2.65 log red
same,Virus neutralized (%),[6]; [19],98.09%
same,Viruside results (log red),[6]; [19],1.72 log red
same,Virus neutralized (%),[6]; [20],96.45%
same,Virus neutralized (%),[6]; [21],95.91%
same,Virus neutralized (%),[6]; [22],97.61%
same,Virus neutralized (%),[6]; [23],93.97%
same,% Gram − bacteria reduced,[3]; PPNW substrate 25 g/m^2,>99.999%
same,Gram − log reduction,[3]; PPNW substrate 25 g/m^2,>5.0 log
same,% Gram − bacteria reduced,[3]; Tyvek substrate,97.5%
same,Gram − log reduction,[3]; Tyvek substrate,1.6 log
"PVP-12 Poly(vinylpyrrolidone)- Iodine complex [PVP-I2, reference compound]",% Gram + bacteria reduced,[2]; PPNW substrate 25 g/m^2,>99.994%
same,Gram + log reduction,[2]; PPNW substrate 25 g/m^2,>4.2 log
same,% Gram − bacteria reduced,[3]; PPNW substrate 25 g/m^2,>99.9996%
same,Gram − log reduction,[3]; PPNW substrate 25 g/m^2,>5.4 log
"n-alkyl(C12-16)-n,n-dimethyl-n-benzylammonium chloride [BTC50E]",Virus neutralized (%),[6]; [13],99.57%
same,Viruside results (log red),[6]; [13],2.37 log red
same,Virus neutralized (%),[6]; [24],99.96%
same,Viruside results (log red),[6]; [24],3.38 log red
same,Virus neutralized (%),[6]; [25],99.74%
same,Viruside results (log red),[6]; [25],2.59 log red
same,Virus neutralized (%),[6]; [14],99.35%
same,Virus neutralized (%),[6]; [15],99.86%
same,Virus neutralized (%),[6]; [16],99.89%
same,Virus neutralized (%),[6]; [17],99.98%
same,Virus neutralized (%),[6]; [18],99.83%
same,Viruside results (log red),[6]; [18],2.78 log red
same,Virus neutralized (%),[6]; [26],99.82%
same,Viruside results (log red),[6]; [26],2.75 log red
same,Virus neutralized (%),[6]; [19],99.83%
same,Viruside results (log red),[6]; [19],2.78 log red
same,Virus neutralized (%),[6]; [20],98.88%
same,Virus neutralized (%),[6]; [21],99.83%
same,Virus neutralized (%),[6]; [22],99.70%
same,Virus neutralized (%),[6]; [23],98.59%
